Values after ≈ are worked out from the molar mass of the structure shown. Residues, ends and D or L forms follow the SMILES beside them. *: point of attachment. Cbz = O=C(OCc1ccccc1)*
settings: buffer; pH 7.4; 200.0 µM

| SMILES | solubility kinetic |
| --- | --- |
| Cc1c(C=O)c2ccccc2n1CC(=O)O | > 32.6 µg/mL |
| CCNC(=O)CCc1nc(-c2ccc(C)cc2)no1 | > 38.9 µg/mL |
| Cc1onc(-c2ccccc2Cl)c1C(=O)N1CCN(C)CC1 | > 48 µg/mL |
| Cc1cccc(OCC(=O)OCC(=O)N2CCN(C(=O)c3ccco3)CC2)c1C | > 60.1 µg/mL |
| OCC(O)CNC(=S)NC1CCCCC1 (configuration not stated) | > 34.9 µg/mL |
| O=C(NCCCO)C(=O)NCc1ccncc1 | > 35.6 µg/mL |
| Cc1cc(=O)[nH]c(-c2ccc(Cl)cc2)n1 | > 33.1 µg/mL |
| Clc1cc(Br)ccc1NCc1cccnc1 | 24.7 µg/mL (≈ 83 µM) |
| CC(C)(C)c1ccc(C(=O)NCc2ccco2)cc1 | 13.5 µg/mL (≈ 52.5 µM) |
| COC(=O)/C(=C\C(=O)c1ccc([N+](=O)[O-])cc1)Nc1ccc(OC)cc1 | < 0.4 µg/mL |
| Cc1ccc(S(=O)(=O)NCc2ccco2)cc1C(N)=O | > 44.1 µg/mL |
| O=C1NC(=Nc2ccccc2)S/C1=C/c1cccnc1 | 1.2 µg/mL (≈ 4.27 µM) |
| CC(C)N(Cc1ccccc1)C(=O)COC(=O)c1cc[n+]([O-])cc1 | > 49.3 µg/mL |
| O=C(Nc1cccc(Cl)c1N1CCOCC1)c1cccs1 | 1.6 µg/mL (≈ 4.96 µM) |
| O=c1[nH]c(=O)n(CCc2ccccc2)c(O)c1C=NC1CC1 | 10.3 µg/mL (≈ 34.4 µM) |
| CCCCn1c(O)c(/C=C2\C=Nc3ccccc32)c(=O)[nH]c1=O | 3.1 µg/mL (≈ 9.96 µM) |
| O=C(Nc1ccc2c(c1)OCCO2)c1cccc(Cl)c1 | 36.9 µg/mL (≈ 127 µM) |
| O=[N+]([O-])c1ccc2nonc2c1Nc1cccc(F)c1 | 1 µg/mL (≈ 3.65 µM) |
| CC1CN(C(=S)Nc2ccccc2F)CC(C)O1 (configuration not stated) | > 40.3 µg/mL |
| O=C(Nc1ccccn1)c1ccc(C(=O)c2ccccc2)cc1 | 21.6 µg/mL (≈ 71.4 µM) |
| COC(=O)Nc1ccc(S(=O)(=O)N2CCCc3cccc(O)c32)cc1 | 2.1 µg/mL (≈ 5.79 µM) |
| CCOc1ccc(N2C=Nc3ccc(OCC)cc3C2)cc1 | 11.6 µg/mL (≈ 39.1 µM) |
| C/C(=N/OC(=O)c1ccc(C(F)(F)F)cc1)c1oc(C)nc1C | 8.1 µg/mL (≈ 24.8 µM) |
| COc1ccc(COCC(O)CN2CCC(C(N)=O)CC2)cc1 (configuration not stated) | > 48.4 µg/mL |

| SMILES | solubility kinetic |
| --- | --- |
| COc1ccc(-c2noc(-c3ccc(Br)o3)n2)cc1 | < 0.3 µg/mL |
| CCOC(=O)Cn1nc(C)c([N+](=O)[O-])c1C | > 34.1 µg/mL |
| C=CCNC(=S)/N=c1/ccccn1Cc1ccccc1 | 39.6 µg/mL (≈ 140 µM) |
| CCOc1cc(CN2CCN(c3ncccn3)CC2)ccc1OC | 43.4 µg/mL (≈ 132 µM) |
| Cc1cc(C)c(S(=O)(=O)c2ccc(C(C)(C)C)cc2)c(Cl)n1 | < 0.7 µg/mL |
| COc1ccccc1CC(=O)OCC(=O)N1CCN(c2ccc(F)cc2)CC1 | > 58 µg/mL |
| CC(=O)NC(C)C(=O)OCC(=O)c1ccc(-c2ccccc2)cc1 (configuration not stated) | 21.9 µg/mL (≈ 67.3 µM) |
| COc1cccc(-c2cc(C(=O)NCc3ccco3)c3ccccc3n2)c1 | 11.6 µg/mL (≈ 32.4 µM) |
| CCCCN1C(=O)C(=O)N(CC(=O)Nc2ccc(OC(F)(F)F)cc2)C1=O | 6.6 µg/mL (≈ 17 µM) |
| COc1ccc(NC(=S)NC(=O)C2CCCCC2)cc1 | < 0.3 µg/mL |
| COc1ccc(CCNC(=O)CN2C(=O)NC3(CCCCC3C)C2=O)cc1 (configuration not stated) | > 56 µg/mL |
| O=C1NC(=O)C(c2cccs2)(c2cccs2)N1 | > 39.6 µg/mL |
| CCc1ccc(NC(=O)NCc2ccccn2)cc1 | > 38.3 µg/mL |
| CC(C)(C)c1ccc(OCC(=O)NCCN2CCOCC2)cc1.Cl | 53 µg/mL |
| COC(=O)c1cc(S(=O)(=O)N(C)Cc2ccco2)c[nH]1 | > 44.7 µg/mL |
| Cc1cc(C(=O)Nc2cccc([N+](=O)[O-])c2C)cs1 | 13.6 µg/mL (≈ 49.2 µM) |
| COc1ccc(N2C(=O)c3ccccc3C(C)(C)C2=O)cc1 | 5.4 µg/mL (≈ 18.3 µM) |
| O=C(Nc1ccc(NC(=O)c2ccccc2Cl)cc1)c1cccnc1 | 3 µg/mL (≈ 8.53 µM) |
| Cc1cccc(OCC(=O)NCC(c2ccco2)N2CCCC2)c1 (configuration not stated) | > 49.3 µg/mL |
| O=[N+]([O-])c1ccc(NC(=S)N2CCCC2)cc1 | 8.2 µg/mL (≈ 32.6 µM) |
| COC(=O)C(C)NC(=O)C1CCCN1C(=O)CNC(=O)OCc1ccccc1 (stereo not drawn) (Cbz-Gly-Pro-Ala-OMe; configuration not given here) | > 58.7 µg/mL |
| CC(=O)c1cccc(NC(=S)NC(=O)c2ccccc2C)c1 | 1 µg/mL (≈ 3.2 µM) |
| COc1ccc(N2CCN(C(=O)NC(=O)c3ccccc3)CC2)cc1 | 38.7 µg/mL (≈ 114 µM) |

Reference: PubChem BioAssay AID1996
